Assay results reported in article PMC7236970 (Clinical Epigenetics, 2020).

Legend:
Acetyl α-tubulin = assay: Western blot of α-tubulin acetylation in K-562 cells; format: cell-based, human; conditions: for effect on α-tubulin acetylation (in words): increasing concentrations
Protocol: (§1) Cells were lyzed in 10% (v/v) Mammalian Protein Extraction Reagent solution (MPER®; Thermofisher, Erembodegen, Belgium) supplemented with 1× protease inhibitor cocktail (Complete EDTA-free, Roche) according to the manufacturer’s instructions. Histone enrichment was performed in acidic conditions as previously described. The protein concentration was determined using the Bradford assay (BioRad).

total HDAC = assay: In vitro HDAC activity assay, total HDAC; format: biochemical; conditions: for IC50: read-out: IC50 values against total HDAC activity; for total HDAC activity remaining: 2 μM SAHA or 0.1 μM MAKV-8
Protocol: (§2) In vitro HDAC activities were measured as previously described. IC50 values against the various HDAC activities were determined using nonlinear regression in Prism 8.0 software (GraphPad Software, Inc., La Jolla, CA, USA).

K-562 cells [1] = assay: Cell proliferation and viability, Trypan Blue exclusion; format: cell-based, human; conditions: for concentration from which cell death was triggered / cell viability decreased / concentration from which cell proliferation was reduced: K-562, 48 h
Protocol: (§4) Cell viability and proliferation were evaluated using the Trypan Blue exclusion method (BioWhittaker ®). Cells were processed using a semi-automated image-based cell analyzer (Cedex XS Innovatis, Roche, Luxembourg, Luxembourg), which provided the cell number as well as cell viability based on the fraction of trypan blue-positive cells.

Acetyl histone H4 = assay: Western blot of histone H4 acetylation in K-562 cells; format: cell-based, human; conditions: for effect on histone H4 acetylation (in words): increasing concentrations
Protocol: as §1

K-562 cells [2] = assay: Cellular ALDH activity (ALDEFLUOR), ALDH+ LSC fraction; format: cell-based, human; conditions: K-562, 24 h; for ALDH+ cell percentage: untreated cells 50%
Protocol: Cellular ALDH activity was assessed using the ALDEFLUOR^TM kit (StemCell Technologies Inc.) according to the manufacturer’s procedure. Diethylaminobenzaldehyde, a specific inhibitor of ALDH activity, was used to differentiate cells with low or high ALDH activity.

PBMCs [3] = test system: PBMCs
Protocol: (§5) PBMCs were isolated from the blood of healthy adult human donors obtained from the Red Cross (Luxembourg, Luxembourg) and purified as previously reported [43].
as §4

HDAC3 = test system: HDAC3; design: method as in PMID 18642892; conditions: in vitro; read-out: IC50 towards HDAC3; cited from earlier work
PBMCs [4] = assay: Healthy cell viability, Trypan Blue exclusion; conditions: 48 h
Protocol: as §5, §4

recombinant HDAC6 = target: T1, recombinant HDAC6 (Homo sapiens, UniProt Q9UBN7); assay: In vitro HDAC activity assay, recombinant HDAC6; format: biochemical; conditions: read-out: IC50 recombinant HDAC6 deacetylase activity
T1 sequence (Q9UBN7 1-1215): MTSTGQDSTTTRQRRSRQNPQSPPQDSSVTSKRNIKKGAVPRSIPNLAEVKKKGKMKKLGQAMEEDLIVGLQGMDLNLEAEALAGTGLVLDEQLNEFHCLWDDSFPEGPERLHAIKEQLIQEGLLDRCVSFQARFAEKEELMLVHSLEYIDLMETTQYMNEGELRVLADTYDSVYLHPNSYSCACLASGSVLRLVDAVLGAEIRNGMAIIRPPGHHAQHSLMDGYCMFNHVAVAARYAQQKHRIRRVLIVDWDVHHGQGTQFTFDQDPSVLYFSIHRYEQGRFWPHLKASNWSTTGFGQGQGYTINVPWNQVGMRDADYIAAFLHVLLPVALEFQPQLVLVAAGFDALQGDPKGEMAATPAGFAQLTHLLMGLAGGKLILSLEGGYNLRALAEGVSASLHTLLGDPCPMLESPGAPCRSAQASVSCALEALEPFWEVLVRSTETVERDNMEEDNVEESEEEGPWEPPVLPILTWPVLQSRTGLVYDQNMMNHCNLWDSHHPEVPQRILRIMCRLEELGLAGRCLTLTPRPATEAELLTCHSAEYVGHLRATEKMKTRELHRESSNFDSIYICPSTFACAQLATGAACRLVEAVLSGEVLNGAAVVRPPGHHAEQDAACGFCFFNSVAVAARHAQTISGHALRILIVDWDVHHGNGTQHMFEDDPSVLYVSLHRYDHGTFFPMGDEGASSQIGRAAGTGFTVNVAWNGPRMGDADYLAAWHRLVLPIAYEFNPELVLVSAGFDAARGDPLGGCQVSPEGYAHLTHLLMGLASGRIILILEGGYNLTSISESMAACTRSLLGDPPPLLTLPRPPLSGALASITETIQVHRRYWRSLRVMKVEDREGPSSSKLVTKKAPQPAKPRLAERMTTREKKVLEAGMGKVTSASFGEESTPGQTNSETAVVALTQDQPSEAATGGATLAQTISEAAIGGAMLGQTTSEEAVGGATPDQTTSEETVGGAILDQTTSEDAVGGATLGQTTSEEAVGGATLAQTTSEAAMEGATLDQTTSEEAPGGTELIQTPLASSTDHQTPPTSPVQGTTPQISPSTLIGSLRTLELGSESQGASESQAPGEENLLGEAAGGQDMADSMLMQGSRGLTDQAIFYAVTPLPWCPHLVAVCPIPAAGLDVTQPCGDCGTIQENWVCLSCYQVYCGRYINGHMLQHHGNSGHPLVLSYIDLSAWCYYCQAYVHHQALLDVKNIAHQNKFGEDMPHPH
Protocol: as §2

recombinant HDAC1 = recombinant HDAC1 (Homo sapiens, UniProt Q13547); assay: In vitro HDAC activity assay, recombinant HDAC1; format: biochemical; conditions: read-out: IC50 recombinant HDAC1 deacetylase activity
recombinant HDAC1, sequence (Q13547 whole entry): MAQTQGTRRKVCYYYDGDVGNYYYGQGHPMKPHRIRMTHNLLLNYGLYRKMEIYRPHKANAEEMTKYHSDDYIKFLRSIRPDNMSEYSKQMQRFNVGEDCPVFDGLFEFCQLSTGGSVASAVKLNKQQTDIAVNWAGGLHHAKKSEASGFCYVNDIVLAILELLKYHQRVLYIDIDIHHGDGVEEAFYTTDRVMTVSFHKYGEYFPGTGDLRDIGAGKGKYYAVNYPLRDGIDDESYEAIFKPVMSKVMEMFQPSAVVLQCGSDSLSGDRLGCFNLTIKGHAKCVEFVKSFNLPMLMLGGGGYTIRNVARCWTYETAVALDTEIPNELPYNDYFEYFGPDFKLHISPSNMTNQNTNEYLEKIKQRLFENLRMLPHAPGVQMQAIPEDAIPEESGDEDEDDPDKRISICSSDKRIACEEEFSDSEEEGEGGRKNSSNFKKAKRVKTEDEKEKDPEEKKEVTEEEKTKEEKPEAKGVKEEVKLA
Protocol: as §2

RPMI-1788 cells = assay: Healthy cell model viability, nuclear morphology; format: cell-based, human; conditions: RPMI-1788, 48 h, 10 μM MAKV-8
Excerpt: PBMCs were isolated from the blood of healthy adult human donors obtained from the Red Cross (Luxembourg, Luxembourg) and purified as previously reported [43]. […] Platelets from healthy adult human donors were provided by the Red Cross.

HDAC6 = test system: HDAC6; design: method as in PMID 18642892; conditions: in vitro; read-out: IC50 towards HDAC6; cited from earlier work
[5] = test system: K-562 cells xenografted in zebrafish; assay: Zebrafish cancer cell xenograft; format: in vivo; conditions: K-562 cells treated 24 h, injected into zebrafish yolk sac, three days post-injection
Protocol: Cancer xenograft assays in zebrafish were performed as previously described using cells stained with 2 μM CM-Dil (Invitrogen) and diluted in 1× PBS supplemented with 1% phenol red sodium salt solution.

platelets = assay: Platelet viability, flow cytometry after Annexin V staining; format: cell-based, human; conditions: 48 h
Protocol: Phosphatidylserine exposure was evaluated using the FITC Annexin V Apoptosis Detection Kit I (BD Biosciences) according to the supplier’s instructions. Stained samples were processed through a cytometer (FACS Calibur, BD Biosciences), and data were recorded statistically (10,000 events/sample) using the CellQuest Pro software (BD, Biosciences). Data were analyzed using the Flow-Jo 8.8.5 software.

K-562 cells [6] = assay: Cyto-ID quantification of autophagic vesicles; format: cell-based, human; conditions: K-562, 8 h, Cyto-ID staining
Protocol: For fluorescence microscopy, the Cyto-ID® Autophagy Detection Kit (Enzo Life Science) was used according to the manufacturer’s instructions. […] Green fluorescent autophagy-related organelles (pre-autophagosomes, autophagosomes, and autophagolysosomes) were quantified as green signal area per cell nucleus as advised by the manufacturer. Segmentation of these areas was based on 31 parameters assessing color, texture, and edge and was carried out in Ilastik, version 1.3.0 developed by the European Molecular Biology Laboratory, Heidelberg. Classifiers trained for these parameters on a set of representative images were then applied to batch process multiple images as described in Ilastik’s user manual. Binary masks thus obtained were measured in FIJI [59] after applying a size filter to remove small size artifacts resulting from segmentation.

K-562 cells [7] = assay: Colony formation assay in methylcellulose; format: cell-based, human; conditions: K-562, 10 days
Protocol: (§3) For colony formation assays, 1000 cells were grown in 1 mL of semi-solid methylcellulose medium (Methocult H4230, StemCell Technologies Inc., Grenoble, France) supplemented with 10% heat-inactivated FCS (BioWhittaker ®) in 12-well plates. Colonies were detected after 10 days of culturing by adding 5 mg/mL 3-(4,5-dimethylthiazol-2-yl)-2,5-diphenyltetrazoliumbromide (MTT) reagent (Sigma-Aldrich) and incubating for 15 min at 37 °C. Pictures were taken with the GelDoc XR+ System (BioRad, Temse, Belgium), and quantifications were conducted using Image J software (US National Institute of Health, Bethesda, MD, USA).

MEG-01 cells [8] = assay: Colony formation assay in methylcellulose; format: cell-based, human; conditions: MEG-01, 10 days
Protocol: as §3

KBM-5 cells [9] = assay: Colony formation assay in methylcellulose; format: cell-based, human; conditions: KBM-5, 10 days
Protocol: as §3

KBM-5 cells [10] = assay: Cell proliferation and viability, Trypan Blue exclusion; format: cell-based, human
Protocol: as §4

MEG-01 cells [11] = assay: as above; format: cell-based, human
Protocol: as §4

COC(=O)CCCCCCNC(=O)c1cc(-c2cccc(NC(=O)OC(C)(C)C)c2)on1 [MAKV-10]
effect on α-tubulin acetylation (in words) (Acetyl α-tubulin; 24 h): did not augment protein target acetylation levels
concentration up to which HDAC activities were not inhibited (total HDAC; in vitro): > 100 µM
IC50 (total HDAC; in vitro): > 100000 nM
effect on cell proliferation and viability (in words) (K-562 cells [1]; K-562, up to 72 h): neither MAKV-10 nor MAKV-12 impacted K-562 cell proliferation and viability
effect on histone H4 acetylation (in words) (Acetyl histone H4; 24 h): did not augment protein target acetylation levels

O=C(CCCCCCC(=O)Nc1ccccc1)NO [SAHA, suberoylanilide hydroxamic acid, reference compound]
effect on ALDH+ cell proportion (in words) (K-562 cells [2]): failed to reduce the ALDH^+ cell proportion
total HDAC activity remaining (total HDAC): about 10%

Cc1ccc(NC(=O)c2ccc(CN3CCN(C)CC3)cc2)cc1Nc1nccc(-c2cccnc2)n1 [imatinib]
ALDH+ cell percentage (K-562 cells [2]): 30%
cell mortality (in words) (PBMCs [3]): failed to trigger any cell mortality

CC(C)(C)OC(=O)Nc1cccc(-c2cc(C(=O)NO)no2)c1 [MAKV-6]
effect on α-tubulin acetylation (in words) (Acetyl α-tubulin; 24 h): failed to increase α-tubulin acetylation
IC50 values against total HDAC activities (in words) (total HDAC; in vitro): low micromolar range
IC50 (total HDAC; in vitro): 1050 ± 220 nM
concentration from which cell death was triggered / cell viability decreased (K-562 cells [1]): ≥ 25 µM
concentration from which cell proliferation was reduced (K-562 cells [1]): ≥ 5 µM
effect on histone H4 acetylation (in words) (Acetyl histone H4; 24 h): increased histone H4 acetylation only at the highest concentrations

CC(C)(C)OC(=O)Nc1ccc(-c2cc(C(=O)NO)no2)cc1 [MAKV-7]
effect on α-tubulin acetylation (in words) (Acetyl α-tubulin; 24 h): failed to increase α-tubulin acetylation
IC50 values against total HDAC activities (in words) (total HDAC; in vitro): low micromolar range
IC50 (total HDAC; in vitro): 22000 nM
concentration from which cell death was triggered / cell viability decreased (K-562 cells [1]): ≥ 25 µM
concentration from which cell proliferation was reduced (K-562 cells [1]): ≥ 10 µM
effect on histone H4 acetylation (in words) (Acetyl histone H4; 24 h): increased histone H4 acetylation only at the highest concentrations

COC(=O)CCCCCCNC(=O)c1cc(-c2cccc(N)c2)on1 [MAKV-12]
effect on α-tubulin acetylation (in words) (Acetyl α-tubulin; 24 h): did not augment protein target acetylation levels
concentration up to which HDAC activities were not inhibited (total HDAC; in vitro): > 100 µM
IC50 (total HDAC; in vitro): > 100000 nM
effect on cell proliferation and viability (in words) (K-562 cells [1]; K-562, up to 72 h): neither MAKV-10 nor MAKV-12 impacted K-562 cell proliferation and viability
effect on histone H4 acetylation (in words) (Acetyl histone H4; 24 h): did not augment protein target acetylation levels

CC(C)(C)OC(=O)Nc1cccc(-c2cc(C(=O)NCCCCCCC(=O)NO)no2)c1 [MAKV-8]
time at which increase in α-tubulin acetylation begins (Acetyl α-tubulin; 15 µM MAKV-8): ≥ 2 h
concentration from which α-tubulin acetylation was induced (Acetyl α-tubulin; 24 h): ≥ 5 µM
EC50 (Acetyl α-tubulin; Homo sapiens, K562, 24 h, western blot quantification, read-out: EC50 half-maximal acetylation of α-tubulin): 12100 ± 900 nM
IC50 (HDAC3): 0.002 nM
ALDH+ cell percentage (K-562 cells [2]): 24%
maximum decrease of viable cells (PBMCs [4]): ≤ 30%
IC50 (recombinant HDAC6): 11.4 nM
IC50 (recombinant HDAC1): 2.6 nM
reduction of living cells (RPMI-1788 cells): about 55%
IC50 (HDAC6): 0.002 nM
total HDAC activity remaining (total HDAC): about 10%
potency as pan-HDACi relative to SAHA (total HDAC; in vitro): 10 times
IC50 (total HDAC; in vitro): 5.8 ± 3.8 nM
tumor formation / tumor volume (in words) [5]: unable to significantly reduce tumor volumes
cytotoxicity in platelets (in words) (platelets): neither alone nor in co-treatments elicited any significant cytotoxicity in platelets
autophagic signal area per nucleus compared to controls (K-562 cells [6]): about 1.5 times
concentration from which cell death was triggered / cell viability decreased (K-562 cells [1]): ≥ 10 µM
concentration from which cell growth was inhibited (K-562 cells [1]; K-562, up to 72 h): about 3 μM
concentration from which colony formation (replicative ability, 3D model) was strongly reduced (K-562 cells [7]): ≥ 5 µM
concentration from which colony formation (replicative ability, 3D model) was strongly reduced (MEG-01 cells [8]): ≥ 5 µM
concentration from which colony formation (replicative ability, 3D model) was strongly reduced (KBM-5 cells [9]): ≥ 10 µM
time at which increase in histone H4 acetylation begins (Acetyl histone H4; 15 µM MAKV-8): ≥ 2 h
concentration from which histone H4 acetylation was induced (Acetyl histone H4; 24 h): ≥ 1 µM
EC50 (Acetyl histone H4; Homo sapiens, K562, 24 h, western blot quantification, read-out: EC50 half-maximal acetylation of histone H4): 5900 ± 1400 nM
concentration from which cell death was triggered (KBM-5 cells [10]; KBM-5, 48 h): ≥ 10 µM
concentration from which cell growth was inhibited (KBM-5 cells [10]; KBM-5, up to 72 h): about 3 μM
concentration from which cell death was triggered (MEG-01 cells [11]; MEG-01, 48 h): ≥ 10 µM
concentration from which cell growth was inhibited (MEG-01 cells [11]; MEG-01, up to 72 h): about 3 μM
